Data reported in ChEMBL document CHEMBL3813664, “Synthesis and evaluation of biphenyl derivatives as potential downregulators of VEGF protein secretion and telomerase-related gene expressions” (Bioorg Med Chem, 2016).
In brackets after ≈: the same amount, converted by molar mass.

How the values were obtained:
MCF7 = experiment: Cytotoxicity against human MCF7 cells assessed as reduction in cell growth after 3 days by MTT assay; assay type: functional, cell-based; settings: MCF7, 72 h
[1] = Therapeutic index, ratio of IC50 for HEK293 cells to IC50 for human MCF7 cells; assay type: cell-based; settings: HEK293 cells versus MCF7 cells, read-out: Ratio IC50
HEK293 = experiment: Cytotoxicity against HEK293 cells assessed as reduction in cell growth after 3 days by MTT assay; assay type: cell-based; settings: Homo sapiens, HEK293, 72 h
[2] = Therapeutic index, ratio of IC50 for HEK293 cells to IC50 for human HT-29 cells; assay type: cell-based; settings: HEK293 cells versus HT-29 cells, read-out: Ratio IC50
HT-29 [3] = experiment: Cytotoxicity against human HT-29 cells assessed as reduction in cell growth after 3 days by MTT assay; assay type: functional, cell-based; settings: HT-29, 72 h
HT-29 [4] = experiment: Downregulation of VEGFA gene expression in human HT-29 cells assessed as gene expression levels at 15 ug/ml after 48 hrs by RT-qPCR analysis relative to control; assay type: functional
HT-29 [5] = experiment: Downregulation of VEGFA-165 secretion in human HT-29 cells assessed as protein secretion levels at 15 ug/ml after 72 hrs by ELISA relative to control; assay type: functional
HT-29 [6] = experiment: Downregulation of c-Myc gene expression in human HT-29 cells assessed as gene expression levels at 15 ug/ml after 48 hrs by RT-qPCR analysis relative to control; assay type: functional
HT-29 [7] = experiment: Downregulation of TERT gene expression in human HT-29 cells assessed as gene expression levels at 15 ug/ml after 48 hrs by RT-qPCR analysis relative to control; assay type: functional
HT-29 [8] = experiment: Downregulation of VEGFA gene expression in human HT-29 cells assessed as gene expression levels at 3 ug/ml after 48 hrs by RT-qPCR analysis relative to control; assay type: functional
HT-29 [9] = experiment: Downregulation of TERT gene expression in human HT-29 cells assessed as gene expression levels at 3 ug/ml after 48 hrs by RT-qPCR analysis relative to control; assay type: functional
HT-29 [10] = experiment: Downregulation of c-Myc gene expression in human HT-29 cells assessed as gene expression levels at 3 ug/ml after 48 hrs by RT-qPCR analysis relative to control; assay type: functional
HT-29 [11] = experiment: Downregulation of VEGFA-165 secretion in human HT-29 cells assessed as protein secretion levels at 3 ug/ml after 72 hrs by ELISA relative to control; assay type: functional

SMILES	IC50 (MCF7) [µg/mL]	selectivity ratio [1]	IC50 (HEK293) [µg/mL]	selectivity ratio [2]	IC50 (HT-29 [3]) [µg/mL]	Activity (HT-29 [4]) [%]	Activity (HT-29 [5]) [%]	Activity (HT-29 [6]) [%]	Activity (HT-29 [7]) [%]	Activity (HT-29 [8]) [%]	Activity (HT-29 [9]) [%]	Activity (HT-29 [10]) [%]	Activity (HT-29 [11]) [%]
Oc1ccc(-c2ccc(O)cc2)cc1	17.8 (≈ 95.6 µM)	0.3	5.1 (≈ 27.4 µM)	0.4	13.9 (≈ 74.6 µM)								
COc1cccc(-c2ccc(O)cc2)c1	41 (≈ 205 µM)	0.9	35 (≈ 175 µM)	1.5	24 (≈ 120 µM)	51	48	34	35				
COc1ccc(-c2cccc(O)c2)cc1OC	48 (≈ 208 µM)	0.5	23.1 (≈ 100 µM)	0.8	29 (≈ 126 µM)								
Nc1ccccc1-c1ccc(O)cc1	44.3 (≈ 239 µM)	1.1	50 (≈ 270 µM)	1	51 (≈ 275 µM)								
Oc1ccccc1-c1ccccc1 [2-PHENYLPHENOL]	51 (≈ 300 µM)	0.6	31.4 (≈ 184 µM)	0.6	55 (≈ 323 µM)								
COc1ccccc1-c1ccc(O)cc1	55 (≈ 275 µM)	0.8	44 (≈ 220 µM)	0.9	49 (≈ 245 µM)								
Nc1cccc(-c2ccc(O)cc2)c1	6.5 (≈ 35.1 µM)	> 15	> 100	> 18	5.4 (≈ 29.2 µM)					42	78	39	55
Oc1ccc(-c2cccc(O)c2)cc1	> 100	9	31 (≈ 166 µM)	9	3.4 (≈ 18.3 µM)					35	30	39	52
COc1ccc(-c2ccccc2O)cc1OC	55 (≈ 239 µM)	0.4	23 (≈ 99.9 µM)	< 0.2	> 100								
Nc1ccc(-c2ccccc2O)cc1	52 (≈ 281 µM)	0.6	31 (≈ 167 µM)	1.2	27.3 (≈ 147 µM)								
Nc1ccc(-c2cccc(O)c2)cc1	> 100	< 0.6	55 (≈ 297 µM)	1.1	49.3 (≈ 266 µM)								
COc1cccc(-c2ccccc2O)c1	43 (≈ 215 µM)	0.9	39 (≈ 195 µM)	1.1	35 (≈ 175 µM)								
Nc1ccccc1-c1ccccc1	2.9 (≈ 17.1 µM)	19	54.9 (≈ 324 µM)	3.3	16 (≈ 94.5 µM)	65	91	53	56				
COc1ccc(-c2ccccc2)cc1OC	45 (≈ 210 µM)	0.6	26 (≈ 121 µM)	0.6	41 (≈ 191 µM)								
COc1ccc(-c2cccc(N)c2)cc1OC	> 100	< 0.2	20 (≈ 87.2 µM)	5	4 (≈ 17.4 µM)					57	90	40	42
COc1ccc(-c2ccccc2N)cc1OC	18 (≈ 78.5 µM)	3	49.9 (≈ 218 µM)	3.3	15 (≈ 65.4 µM)	61	56	50	86				
COc1ccc(-c2ccccc2)c(OC)c1	> 100	< 0.3	27 (≈ 126 µM)	0.5	55.2 (≈ 258 µM)								
COc1ccc(-c2ccc(O)cc2)c(OC)c1	47 (≈ 204 µM)	> 2	> 100	> 5	21 (≈ 91.2 µM)	37	35	87	56				
COc1ccccc1-c1cccc(O)c1	44 (≈ 220 µM)	1.1	50 (≈ 250 µM)	2.3	22 (≈ 110 µM)	76	31	50	62				
COc1ccc(-c2ccc(O)cc2)cc1	53 (≈ 265 µM)	< 0.1	2 (≈ 9.99 µM)	< 0.1	> 100								
COc1ccc(-c2cccc(N)c2)c(OC)c1	> 100	< 0.3	29.2 (≈ 127 µM)	0.6	49 (≈ 214 µM)								

SMILES	IC50 (MCF7) [µg/mL]	selectivity ratio [1]	IC50 (HEK293) [µg/mL]	selectivity ratio [2]	IC50 (HT-29 [3]) [µg/mL]	Activity (HT-29 [4]) [%]	Activity (HT-29 [5]) [%]	Activity (HT-29 [6]) [%]	Activity (HT-29 [7]) [%]	Activity (HT-29 [8]) [%]	Activity (HT-29 [9]) [%]	Activity (HT-29 [10]) [%]	Activity (HT-29 [11]) [%]
COc1ccccc1-c1ccccc1	1.6 (≈ 8.68 µM)	33	52 (≈ 282 µM)	1	51 (≈ 277 µM)								
COc1ccc(-c2ccc(N)cc2)c(OC)c1	> 100	< 0.2	22 (≈ 96 µM)	10	2.2 (≈ 9.6 µM)					41	40	39	51
Oc1cccc(-c2ccccc2O)c1	> 100		> 100	> 19	5.2 (≈ 27.9 µM)					10	18	87	57
Nc1ccccc1-c1cccc(O)c1	16 (≈ 86.4 µM)	0.7	10.5 (≈ 56.7 µM)	1.1	9.2 (≈ 49.7 µM)					54	77	38	48
COc1ccc(-c2ccccc2O)cc1	42 (≈ 210 µM)	1	44 (≈ 220 µM)	0.9	47 (≈ 235 µM)								
Oc1ccccc1-c1ccccc1O	60 (≈ 322 µM)	1	57 (≈ 306 µM)	23	2.5 (≈ 13.4 µM)					23	3	18	57
COc1ccc(-c2cccc(O)c2)cc1	48 (≈ 240 µM)	0.3	14.6 (≈ 72.9 µM)	0.2	72 (≈ 360 µM)								
COc1ccc(-c2cccc(O)c2)c(OC)c1	50.2 (≈ 218 µM)	0.6	28 (≈ 122 µM)	0.5	54 (≈ 235 µM)								
Nc1ccc(-c2ccccc2)cc1 [BIPHENYL-4-AMINE]	1.4 (≈ 8.27 µM)	> 69	> 100		> 100								
Nc1ccccc1-c1ccccc1O	56 (≈ 302 µM)	1	54.1 (≈ 292 µM)	1.2	44 (≈ 238 µM)								
Oc1ccc(-c2ccccc2O)cc1	> 100		54 (≈ 290 µM)	38	1.4 (≈ 7.52 µM)					16	11	11	62
Nc1cccc(-c2ccccc2)c1	60 (≈ 355 µM)	0.9	54 (≈ 319 µM)	1.3	42 (≈ 248 µM)								
Nc1ccc(-c2ccc(O)cc2)cc1	49.9 (≈ 269 µM)	1.2	62 (≈ 335 µM)	1.1	56 (≈ 302 µM)								
Oc1cccc(-c2cccc(O)c2)c1	51.6 (≈ 277 µM)	1.3	68 (≈ 365 µM)	28	2.5 (≈ 13.4 µM)					5	29	16	50
Nc1cccc(-c2ccccc2O)c1	28 (≈ 151 µM)	1.7	47 (≈ 254 µM)	1	49 (≈ 265 µM)								
COc1ccc(-c2ccc(N)cc2)cc1OC	5.5 (≈ 24 µM)	4	23 (≈ 100 µM)	12	2 (≈ 8.72 µM)					48	100	92	48
Oc1cccc(-c2ccccc2)c1	27.4 (≈ 161 µM)	0.9	25 (≈ 147 µM)	0.9	28 (≈ 165 µM)								
Nc1cccc(-c2cccc(O)c2)c1	99 (≈ 534 µM)	0.5	50.1 (≈ 270 µM)	0.9	54 (≈ 292 µM)								
COc1ccc(-c2ccccc2N)c(OC)c1	56 (≈ 244 µM)	> 2	> 100	> 2	56 (≈ 244 µM)								
COc1ccccc1-c1ccccc1O	> 100	< 0.5	54 (≈ 270 µM)	20	2.7 (≈ 13.5 µM)					17	3	6	33
COc1ccc(-c2ccccc2)cc1	> 100	< 0.2	17 (≈ 92.3 µM)	0.4	45 (≈ 244 µM)								
